Reference: patent US9738684B2, “N-terminally modified linear and branched polyamine conjugated peptidomimetics as antimicrobials agents” (COUNCIL OF SCIENTIFIC & INDUSTRIAL RESEARCH, priority 2015, dated 2017)
Values after ≈ are worked out from the molar mass of the structure shown.

Experiments:
MRSA = experiment: Membrane depolarization with DiSC3(5) dye; assay type: cell-based, Staphylococcus aureus; details: up to the highest concentration tested
Protocol: For determination of membrane depolarizing ability of designed peptidomimetics, a membrane potential sensitive dye DiSC3(5) was used as described previously with minor modifications [Org Biomol. Chem. 10: 8326-8335, 2012; J. Am. Chem. Soc., 132: 18417-18428, 2010.]. Briefly, overnight grown MRSA was sub cultured into MHB for 2-3 h at 37° C. to obtain mid-log phase cultures. The cells were centrifuged at 4000 rpm for 10 min at 25° C., washed, and re-suspended into respiration buffer (5 mM HEPES, 20 mM glucose, pH 7.4) to obtain a diluted suspension of OD600˜0.05. Then DiSC3(5) [0.18 μM in DMSO], was added to 500 μL aliquotes of the re-suspended cells and allowed to stabilize for 1 h. Baseline fluorescence was acquired using a Edinburg F900 spectrofluorometer by excitation at 622 nm and emission at 670 nm in a 1 cm path length cuvette. Bandwidth of 5 nm was employed for excitation and emission. Subsequently, increasing concentrations of test peptidomimetics were added to the stabilized cells and the increase of fluorescence on account of the de-quenching of DiSC3(5) dye was measured after every 2 min to obtain the maximal depolarization. Increase in relative fluorescence unit (RFU) was plotted against increasing concentrations of different peptidomimetics or PMB. […] The increase in fluorescence for lipid tagged peptidomimetics was concentration dependent up to 9.9 μg/mL and henceforth, got saturated resulting into plateau like dose response curves. The experiment was repeated twice on two consecutive days and produced similar results.

[1] = test system: human red blood cells (hRBC); experiment: Hemolytic activity; assay type: cell-based; details: 250 μg/mL, 1 h at 37° C.
Protocol: Hemolytic activity of the peptidomimetics was evaluated on human red blood cells (hRBC) as described previously with minor modifications [FEBS J, 273:4040-4054, 2006; Biochim Biophys Acta., 1798:1864-1875, 2010]. Briefly, 100 μL of fresh hRBC suspension 4% v/v in NaCl/Pi (35 mM phosphate buffer, 150 mM NaCl, pH 7.2) was placed in a 96-well plate. After incubation of the peptidomimetics (100 μL) in the hRBC suspension for 1 h at 37° C., the plates were centrifuged and supernatant (100 μL) was transferred to fresh 96-well plate. Absorbance was read at 540 nm using ELISA plate reader (Molecular Devices). Percent hemolysis was calculated using the following formula: % hemolysis=100[(A−A0)/(At−A0)]
Where, A represents absorbance of sample wells at 540 nm. Also A0 and At represents 0% and 100% hemolysis determined in NaCl/Pi and 1% Triton X-100, respectively (Table 2). […] Peptidomimetics 1e and 1f caused 31% and 30% hemolysis at 250 μg/mL. Peptidomimetics 2d, 2e and 2f caused significant hemolysis with 83%, 96% and 88% damage to hRBCs at […] respectively.

[2] = test system: Gram-positive bacterial strains; experiment: Antibacterial activity; assay type: cell-based
Protocol: (§1) Following bacterial strains were used in this study: S. aureus (ATCC 29213), methicillin resistant S. aureus (ATCC 33591), Staphylococcus epidermidis (ATCC 12228), methicillin resistant Staphylococcus epidermidis(ATCC 51625), Enterococcus faecalis (ATCC 7080), Escherichia coli (ATCC 11775), and Acinetobacter baumannii (ATCC 19606). Antibacterial activity was evaluated using a modified serial broth dilution method in accordance with Clinical Laboratory Standard Institute guidelines [Methods for dilution antimicrobial susceptibility tests for bacteria that grow aerobically-7th ed. Approved standard M7-A7. Clinical and Laboratory Standards Institute, Wayne, Pa., Biochim. Biophys. Acta 1798:1864-1875, 2010.]. Briefly, the inoculums were prepared from mid-log phase bacterial cultures. Peptidomimetics were incubated with bacterial suspension in Muller Hinton broth media (10^5 CFU/mL) in 96 well microtitre plate. The plates were incubated overnight with agitation (200 rpm) at 37° C. After 18 h, absorbance was measured at 630 nm. Cultures without test peptidomimetics were used as positive control. Un-inoculated Mueller Hinton Broth (MHB) was used as negative control. Tests were carried out in duplicate on at least three different days. […] For comparison standard peptide antibiotics vancomycin (VAN) and polymyxin B (PMB) were also assayed under identical conditions (Table 2). […] Further, antibacterial activity of active peptidomimetics 1c and 1d were also evaluated against MRSA in presence of 25% v/v human serum as well as bovine serum.

[3] = test system: Staphylococcus epidermidis (ATCC 12228); experiment: MIC, serial broth dilution; assay type: cell-based
Protocol: (§2) The peptidomimetics designed in present invention were evaluated as antibacterial therapeutics against a broad range of bacterial strains by broth microdilution method. The antibacterial activity of the peptidomimetics was reported in terms of the minimum inhibitory concentrations (MIC).
as §1

[4] = test system: Enterococcus faecalis (ATCC 7080); experiment: MIC, serial broth dilution; assay type: cell-based; details: MHB, 18 h, 37° C.
Protocol: as §2, §1

[5] = test system: methicillin resistant S. aureus (ATCC 33591); experiment: MIC, serial broth dilution; assay type: cell-based, Staphylococcus aureus; details: 18 h
Protocol: as §2, §1

S. aureus (ATCC 29213) = experiment: MIC, serial broth dilution; assay type: cell-based, Staphylococcus aureus
Protocol: as §2, §1

Staphylococcus species = experiment: Antibacterial activity; assay type: cell-based
Protocol: as §1

[6] = test system: Gram-negative bacterial strains; experiment: Antibacterial activity; assay type: cell-based
Protocol: as §1

[7] = test system: methicillin resistant Staphylococcus epidermidis (ATCC 51625); experiment: MIC, serial broth dilution; assay type: cell-based; details: Staphylococcus epidermidis, ATCC 51625 / MRSE, 18 h, read-out: MIC MRSE (ATCC 51625)
Protocol: as §2, §1

[8] = test system: Acinetobacter baumannii (ATCC 19606); experiment: MIC, serial broth dilution; assay type: cell-based; details: Acinetobacter baumannii, ATCC19606, 18 h, read-out: MIC A. baumannii (ATCC 19606)
Protocol: as §2, §1

S. aureus (ATCC 33591) = experiment: Resistance development study, serial passage at sub MIC; assay type: cell-based, Staphylococcus aureus; details: 17 serial passages at sub MIC
Protocol: FIG. 5: Illustration of resistance development study in S. aureus (ATCC 33591) after 17 serial passages with sub MIC of 1c/1d or antibiotic treatment. The fold change in MIC is the ratio of the MIC after 17 passages relative to that MIC observed before first passage.
To determine potential of active peptidomimetics against resistance development, in vitro serial passage method at sub inhibitory concentration was done. Briefly, bacterial suspension (100 μL) from duplicate wells at the concentration of sub-MIC was used to inoculate fresh culture. The culture was grown to obtain approximately 10^5 CFU/mL for the next experiment. These bacterial suspensions were then incubated with desired concentration of antibacterial agents for 18 h to determine new MIC. The same sub culturing protocol was used for next 16 passages and MIC was determined using OD630 nm as described previously in the text [Chem. Biol., 20:1286-1295, 2013.]

MRSA (ATCC 33591) = experiment: Planktonic MIC in biofilm media (MICb); assay type: cell-based, Staphylococcus aureus; details: TSB with 0.5% NaCl and 0.25% glucose
[9] = test system: Escherichia coli (ATCC 11775); experiment: MIC, serial broth dilution; assay type: cell-based; details: Escherichia coli, ATCC11775, 18 h, read-out: MIC E. coli. (ATCC 11775)
Protocol: as §2, §1

[10] = test system: MRSA (ATCC 33591) biofilm; experiment: 24 h preformed mature biofilm (alamar blue, crystal violet); assay type: cell-based, Staphylococcus aureus; details: Staphylococcus aureus, 24 h, read-out: viable cells in 24 h pre-formed mature biofilm (alamar blue)
Protocol: To evaluate potential of designed active peptidomimetics against MRSA biofilms a methodology as used previously was employed with minor modifications [Antimicrob. Agents Chemother., 57:2726-2737, 2013]. Briefly, freshly inoculated MRSA (ATCC 33591) was grown in biofilm growth media (TSB supplemented with 0.5% w/v NaCl and 0.25% w/v glucose) overnight. Next day, the culture was diluted in fresh biofilm growth media to 10^5 CFU/mL. 200 μl of diluted culture was dispensed in wells of a 96-well polystyrene plate for biofilm formation. […] Biofilm cultures were re-incubated at 37° C. for 24 h. After removal of medium, the biofilms were further washed twice with sterile NaCl/Pi buffer and assessed for metabolic activity (alamar blue assay) and biomass quantification (Crystal violet assay).

[11] = test system: MRSA (ATCC 33591) biofilm; experiment: Confocal laser scanning microscopy of biofilm, thickness by z-stacking; assay type: cell-based, Staphylococcus aureus; details: for confocal observation of mature biofilm: 24 h preformed biofilm
From the text: For visualization of biofilm and validation of AB and CV assay we performed confocal microscopy. For this biofilm formation was induced on glass cover slips in a 6-well plate. The biofilm on cover slips were washed twice with sterile NaCl/Pi buffer and stained with a Live/Dead kit reagent (Invitrogen, Molecular Probes, Eugene, Oreg., USA) following the manufacturer's instructions. This stain contains DNA binding dyes SYTO 9 (green fluorescent) and propidium iodide (PI; red fluorescent). When used alone, SYTO 9 stains all bacteria in a population, those with intact as well as damaged membranes. In contrast, PI penetrates only bacteria with damaged membranes, causing a reduction in the SYTO 9 stain (green fluorescence). The biofilms were examined with an Olympus flow view FV1000 (confocal laser scanning microscope, CLSM). The experiment was repeated three times on three different days and representative data is presented here.
We next measured the thickness of biofilm using z-stacking in confocal microscopy. […] At MICb, 1c and 1d prevented formation of biofilm in which very few cells were adhered to substratum with observed average thickness of 3.9±1.1 μm and 3.5±0.6 μm, respectively. Furthermore, at sub-MICb concentration the observed thicknesses were 5.2±0.3 μm and 5.8±0.4 μm (FIG. 7A.b and FIG. 7A.d).

NCCCNCCCCNCCCNC(=O)C(Cc1c[nH]c2ccccc12)NC(=O)C(N)Cc1c[nH]c2ccccc12 (stereo not shown) [1a]
change in relative fluorescence unit (RFU), membrane depolarization (MRSA): only minor increase | % H, percentage hemolysis of human RBCs [1]: 4% | activity against Gram-positive bacterial strains [2]: moderate activity | MIC S. epidermidis (ATCC 12228) ([3]; MHB, 18 h, 37° C.): 113.6 µg/mL (≈ 198 µM) | MIC E. facaelis (ATCC 7080) [4]: 0.4545 µg/mL (≈ 0.791 µM) | MIC MRSA (ATCC 33591) ([5]; MHB, 37° C.): 227.2 µg/mL (≈ 395 µM) | MIC S. aureus (ATCC 29213) (S. aureus (ATCC 29213); MHB, 18 h, 37° C.): 0.1136 µg/mL (≈ 0.198 µM)

CN[C@H](CC(C)C)C(=O)N[C@H]1C(=O)N[C@@H](CC(N)=O)C(=O)N[C@H]2C(=O)N[C@H]3C(=O)N[C@H](C(=O)N[C@H](C(=O)O)c4cc(O)cc(O)c4-c4cc3ccc4O)[C@H](O)c3ccc(c(Cl)c3)Oc3cc2cc(c3O[C@@H]2O[C@H](CO)[C@@H](O)[C@H](O)[C@H]2O[C@H]2C[C@](C)(N)[C@H](O)[C@H](C)O2)Oc2ccc(cc2Cl)[C@H]1O [VAN, vancomycin, reference compound]
activity against Staphylococcus species (Staphylococcus species): potent growth inhibition | growth inhibition of Gram-negative bacterial strains [6]: ineffective | MIC ([3]; Staphylococcus epidermidis, ATCC12228, 18 h, read-out: MIC S. epidermidis (ATCC 12228)): 0.0004 µg/mL (≈ 0.000276 µM) | MIC [7]: 0.0008 µg/mL (≈ 0.000552 µM) | MIC [8]: 0.0568 µg/mL (≈ 0.0392 µM) | increase in MIC after 17 passages (S. aureus (ATCC 33591)): 4 fold | MICb, planktonic MIC in biofilm media (MRSA (ATCC 33591)): 0.8 µg/mL | MIC [9]: 0.114 µg/mL (≈ 0.0784 µM) | MIC ([5]; Staphylococcus aureus, ATCC 33591 / MRSA, read-out: MIC MRSA (ATCC 33591)): 0.0008 µg/mL (≈ 0.000552 µM) | MIC (S. aureus (ATCC 29213); Staphylococcus aureus, ATCC29213, 18 h, read-out: MIC S. aureus (ATCC 29213)): 0.0004 µg/mL (≈ 0.000276 µM) | viability at 20 µg/mL [10]: 77.7 ± 7% | confocal observation of mature biofilm ([11]; 10×MICb): little effect | confocal observation of mature biofilm ([11]; 20×MICb): slight decrease in the height of mature biofilm | average thickness of biofilm, biofilm formation ([11]; MICb, control 14.3±1.4 μm): 11.4±2.9 μm | thickness of biofilm, biofilm formation ([11]; sub-MICb, control 14.3±1.4 μm): unable to reduce biofilm thickness
